Measured values from PubChem BioAssay AID256 (DTP/NCI, 2004).
Toxic doses and inconclusive results are not listed. Rule for the calls: active = survival T/C of 150% or more; inactive = T/C below 125% in these data.

System: CD2F1 mice, L1210 leukemia ip, survival T/C
Assay: NCI In Vivo Anticancer Drug Screen. Data for tumor model L1210 Leukemia (intraperitoneal) in CD2F1 (CDF1) mice
Conditions: higher = longer survival
Summary of the method: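 Mice carrying a transplanted tumor received test compound or vehicle alone. The value is the measurement in the treated group divided by that in the vehicle-treated control group.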

[1] = endpoint: mean survival time, dose: 50.0 mg/kg/injection, schedule: Q01DX009 (ip), vehicle: saline
[2] = endpoint: mean survival time, dose: 100.0 mg/kg/injection, schedule: Q01DX009 (ip), vehicle: saline
[3] = endpoint: mean survival time, dose: 200.0 mg/kg/injection, schedule: Q01DX009 (ip), vehicle: saline
[4] = endpoint: mean survival time, dose: 400.0 mg/kg/injection, schedule: Q01DX009 (ip), vehicle: saline
[5] = endpoint: mean survival time, dose: 100.0 mg/kg/injection, schedule: Q04DX003 (ip), vehicle: saline with Tween-80
[6] = endpoint: mean survival time, dose: 200.0 mg/kg/injection, schedule: Q04DX003 (ip), vehicle: saline with Tween-80
[7] = endpoint: mean survival time, dose: 100.0 mg/kg/injection, schedule: Q04DX003 (ip), vehicle: saline
[8] = endpoint: mean survival time, dose: 200.0 mg/kg/injection, schedule: Q04DX003 (ip), vehicle: saline
[9] = endpoint: mean survival time, dose: 400.0 mg/kg/injection, schedule: Q04DX003 (ip), vehicle: saline
[10] = endpoint: mean survival time, dose: 400.0 mg/kg/injection, schedule: Q04DX003 (ip), vehicle: saline with Tween-80
[11] = endpoint: mean survival time, dose: 25.0 mg/kg/injection, schedule: Q04DX002 (ip), vehicle: saline with Tween-80
[12] = endpoint: mean survival time, dose: 50.0 mg/kg/injection, schedule: Q04DX002 (ip), vehicle: saline with Tween-80
[13] = endpoint: mean survival time, dose: 100.0 mg/kg/injection, schedule: Q04DX002 (ip), vehicle: saline with Tween-80

Measured: T/C

CN(C)C(=O)c1cccc(NC(=O)NCc2cccc(N3C(N)=NC(N)=NC3(C)C)c2)c1
inactive: endpoint: mean survival time, dose: 25.0 mg/kg/injection, schedule: Q01DX009 (ip), vehicle: saline 94 % of control | [1] 95 % of control

OC1C2COC(O2)C(O)C1O (stereo not given) (tested in a mixture with another compound)
inactive: [2] 93 % of control | [3] 91 % of control | [4] 91 % of control

NC(=O)c1csc(C2OC(CO)C(O)C2O)[n+]1[O-] (stereo not given)
inactive: endpoint: median survival time, dose: 9.38 mg/kg/injection, schedule: Q01DX005 (ip), vehicle: saline 102 % of control | endpoint: median survival time, dose: 18.75 mg/kg/injection, schedule: Q01DX005 (ip), vehicle: saline 101 % of control | endpoint: median survival time, dose: 37.5 mg/kg/injection, schedule: Q01DX005 (ip), vehicle: saline 103 % of control | endpoint: median survival time, dose: 75.0 mg/kg/injection, schedule: Q01DX005 (ip), vehicle: saline 104 % of control | endpoint: median survival time, dose: 150.0 mg/kg/injection, schedule: Q01DX005 (ip), vehicle: saline 104 % of control

S=C1NC(c2ccccc2)Nc2ccccc21 (stereo not given)
inactive: [5] 91 % of control | [6] 95 % of control

O=Cc1ccc(OCCCOc2ccc([N+](=O)[O-])cc2)cc1
inactive: endpoint: mean survival time, dose: 100.0 mg/kg/injection, schedule: Q04DX002 (ip), vehicle: Klucel (hydroxypropylcellulose) (HPC) 102 % of control | endpoint: mean survival time, dose: 200.0 mg/kg/injection, schedule: Q04DX002 (ip), vehicle: Klucel (hydroxypropylcellulose) (HPC) 94 % of control | endpoint: mean survival time, dose: 400.0 mg/kg/injection, schedule: Q04DX002 (ip), vehicle: Klucel (hydroxypropylcellulose) (HPC) 102 % of control

CC(C)(CO)NC(=O)CCO
inactive: [2] 101 % of control | [7] 97 % of control | [3] 103 % of control | [8] 98 % of control | [4] 104 % of control | [9] 101 % of control

CC(C)c1cc2c(cc1O)C1(C)CCCC(C)(C#N)C1CC2 (stereo not given)
inactive: endpoint: mean survival time, dose: 100.0 mg/kg/injection, schedule: Q01DX009 (ip), vehicle: saline sonified 95 % of control | endpoint: mean survival time, dose: 200.0 mg/kg/injection, schedule: Q01DX009 (ip), vehicle: saline sonified 89 % of control | endpoint: mean survival time, dose: 400.0 mg/kg/injection, schedule: Q01DX009 (ip), vehicle: saline sonified 91 % of control

CC(=O)OC1=C(C)C(c2ccc(C)cc2)OC1=O (stereo not given)
inactive: endpoint: mean survival time, dose: 12.5 mg/kg/injection, schedule: Q01DX009 (ip), vehicle: other 101 % of control | endpoint: mean survival time, dose: 25.0 mg/kg/injection, schedule: Q01DX009 (ip), vehicle: other 106 % of control | endpoint: mean survival time, dose: 50.0 mg/kg/injection, schedule: Q01DX009 (ip), vehicle: other 110 % of control | endpoint: mean survival time, dose: 100.0 mg/kg/injection, schedule: Q01DX009 (ip), vehicle: other 104 % of control | endpoint: mean survival time, dose: 200.0 mg/kg/injection, schedule: Q01DX009 (ip), vehicle: other 104 % of control

O=C(Nc1ccccc1)Nc1ccc(Cl)c(Cl)c1
inactive: endpoint: mean survival time, dose: 100.0 mg/kg/injection, schedule: Q04DX003 (ip), vehicle: acetone 98 % of control | endpoint: mean survival time, dose: 200.0 mg/kg/injection, schedule: Q04DX003 (ip), vehicle: acetone 101 % of control | endpoint: mean survival time, dose: 400.0 mg/kg/injection, schedule: Q04DX003 (ip), vehicle: acetone 106 % of control

O=C(O)c1cscn1.O=C(O)c1cscn1.[I][Pt][I]
inactive: endpoint: mean survival time, dose: 3.12 mg/kg/injection, schedule: Q04DX003 (ip), vehicle: distilled water + Tween-80 108 % of control | endpoint: mean survival time, dose: 6.25 mg/kg/injection, schedule: Q04DX003 (ip), vehicle: distilled water + Tween-80 101 % of control | endpoint: mean survival time, dose: 12.5 mg/kg/injection, schedule: Q04DX003 (ip), vehicle: distilled water + Tween-80 104 % of control | endpoint: mean survival time, dose: 25.0 mg/kg/injection, schedule: Q04DX003 (ip), vehicle: distilled water + Tween-80 102 % of control | endpoint: mean survival time, dose: 50.0 mg/kg/injection, schedule: Q04DX003 (ip), vehicle: distilled water + Tween-80 104 % of control | endpoint: mean survival time, dose: 50.0 mg/kg/injection, schedule: Q04DX003 (ip), vehicle: saline with Tween-80 110 % of control | endpoint: mean survival time, dose: 100.0 mg/kg/injection, schedule: Q04DX003 (ip), vehicle: distilled water + Tween-80 114 % of control | [5] 104 % of control | endpoint: mean survival time, dose: 200.0 mg/kg/injection, schedule: Q04DX003 (ip), vehicle: distilled water + Tween-80 119 % of control | [6] 122 % of control | [10] 112 % of control

CSc1nc(N)c2c(n1)nc(N(C)C)n2O
inactive: endpoint: mean survival time, dose: 12.5 mg/kg/injection, schedule: Q01DX005 (ip), vehicle: water 106 % of control | endpoint: mean survival time, dose: 25.0 mg/kg/injection, schedule: Q01DX005 (ip), vehicle: water 102 % of control | endpoint: mean survival time, dose: 50.0 mg/kg/injection, schedule: Q01DX005 (ip), vehicle: water 93 % of control | endpoint: mean survival time, dose: 100.0 mg/kg/injection, schedule: Q01DX005 (ip), vehicle: water 95 % of control | endpoint: mean survival time, dose: 200.0 mg/kg/injection, schedule: Q01DX005 (ip), vehicle: water 97 % of control

CC(=O)CC(=O)Nc1nccs1
inactive: [11] 110 % of control | [12] 107 % of control | [13] 93 % of control

CNc1c(C)cc(C)c(NC)c1C
inactive: [11] 104 % of control | [12] 96 % of control | [13] 116 % of control

C=CCOCC(O)CN1CCCCC1 (stereo not given)
inactive: [1] 116 % of control | [2] 96 % of control

CCNc1cc(Cl)c(C(=O)O)cc1[N+](=O)[O-]
inactive: [7] 105 % of control | [8] 110 % of control | [9] 115 % of control

c1ccc(CCC2=Nc3ccccc3CO2)cc1
inactive: [5] 102 % of control | [6] 103 % of control | [10] 102 % of control

O=C1c2ccccc2C(=O)c2c(O)c(S(=O)(=O)O)cc(O)c21
inactive: [7] 93 % of control | [8] 96 % of control

CC1(C)Oc2ccccc2O1
inactive: endpoint: mean survival time, dose: 25.0 mg/kg/injection, schedule: Q01DX009 (ip), vehicle: saline with Tween-80 106 % of control | endpoint: mean survival time, dose: 50.0 mg/kg/injection, schedule: Q01DX009 (ip), vehicle: saline with Tween-80 102 % of control | endpoint: mean survival time, dose: 100.0 mg/kg/injection, schedule: Q01DX009 (ip), vehicle: saline with Tween-80 93 % of control

OC(CC1=NCCS1)(c1ccccc1)c1ccccc1
inactive: [5] 93 % of control | [6] 87 % of control | [10] 98 % of control
